pIC50: −log10 of the molar value. Like-named read-outs stand apart in the source and are kept apart here.
Legend:
[1] = biological target: recombinant human Mcl-1 (residues 171-327) / Bim interaction (Homo sapiens (Human), UniProt Q07820); test: biochemical; type: binding; settings: read-out: Mcl-1 HTRF IC50
[2] = test system: human multiple myeloma cell line, OPM-2; test: Cell viability assay (OPM-2 10 FBS), CellTiter-Glo; type: cell-based
In short: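 3000 cells/well, RPMI 1640 + 10% FBS; serial compound dilutions, 16 h, 37 °C/5% CO2.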

[3] = TR-FRET, Mcl-1(171-327) / biotin-Bim (51-76)
[4] = Homo sapiens, OPM-2, 16 h, read-out: OPM-2 10% FBS IC50 IP, OPM-2 cells, 10% FBS, 16 h, CellTiter-Glo
[5] = read-out: OPM-2 10% FBS IC50 IP, OPM-2 cells, 10% FBS, 16 h, CellTiter-Glo

Sequence of recombinant human Mcl-1 (residues 171-327) / Bim interaction (Q07820 171-327): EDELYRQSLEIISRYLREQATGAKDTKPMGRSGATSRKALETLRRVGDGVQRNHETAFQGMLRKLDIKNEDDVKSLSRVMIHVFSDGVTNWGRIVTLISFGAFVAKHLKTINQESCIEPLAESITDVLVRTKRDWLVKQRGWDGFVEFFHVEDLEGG

| Compound | pIC50 [1, 3] | pIC50 [2, 4] | pIC50 [2, 5] | pIC50 [1] |
| --- | --- | --- | --- | --- |
| CCOC(=O)COC[C@]1(OCC(=O)OCC)CCCC[C@@H](CC)S(=O)(=O)NC(=O)c2ccc3c(c2)N(C[C@@H]2CC[C@H]21)C[C@@]1(CCCc2cc(Cl)ccc21)CO3 [Example 100042, ethyl (((1S,3′R,6′R,7′S,12′R)-6-chloro-7′-(2-ethoxy-2-oxoethoxy)-12′-ethyl-13′,13′-dioxido-15′-oxo-3,4-dihydro-2H-spiro[naphthalene-1,22′-[20]oxa[13]thia[1,14]diazatetracyclo [14.7.2.0~3,6~.0~19,24~]pentacosa[16,18,24]trien]-7′-yl)methoxy)acetate] | 8.31 | 5.65 | – | – |
| CC[C@@H]1CCCC[C@@]2(COCC(=O)O2)[C@@H]2CC[C@H]2CN2C[C@@]3(CCCc4cc(Cl)ccc43)COc3ccc(cc32)C(=O)NS1(=O)=O [Example 100043, (2S,3′R,6′R,12′R,22′S)-6″-chloro-12′-ethyl-3″,4″-dihydro-2″H,6H,15′H-dispiro[1,4-dioxane-2,7′-[20]oxa[13]thia[1,14]diazatetracyclo [14.7.2.0~3,6~.0~19,24~]pentacosa[16,18,24]triene-22′,1″-naphthalene]-6,15′-dione 13′,13′-dioxide] | 8.78 | 5.14 | – | – |
| CC[C@@H]1CC/C=C/[C@](O)(C(F)(F)F)[C@@H]2CC[C@H]2CN2C[C@@]3(CCCc4cc(Cl)ccc43)COc3ccc(cc32)C(=O)NS1(=O)=O [Example 100044, (1S,3′R,6′R,7′R,8′E,12′R)-6-chloro-12′-ethyl-7′-hydroxy-7′-(trifluoromethyl)-3,4-dihydro-2H,15′H-spiro[naphthalene-1,22′-[20]oxa[13]thia[1,14]diazatetracyclo [14.7.2.0~3,6~.0~19,24~]pentacosa[8,16,18,24]tetraen]-15′-one 13′,13′-dioxide] | 7.51 | – | 5.14 | – |
| C[C@@H]1[C@@H](C)C/C=C/[C@@](O)(C(F)(F)F)[C@@H]2CC[C@H]2CN2C[C@@]3(CCCc4cc(Cl)ccc43)COc3ccc(cc32)C(=O)NS1(=O)=O [Example 100045, (1S,3′R,6′R,7′S,8′E,11′S,12′R)-6-chloro-7′-hydroxy-11′,12′-dimethyl-7′-(trifluoromethyl)-3,4-dihydro-2H,15′H-spiro[naphthalene-1,22′-[20]oxa[13]thia[1,14]diazatetracyclo [14.7.2.0~3,6~.0~19,24~]pentacosa[8,16,18,24]tetraen]-15′-one 13′,13′-dioxide] | 9.51 | 6.47 | – | – |
| C[C@@H]1[C@@H](C)C/C=C/[C@](O)(C(F)(F)F)[C@@H]2CC[C@H]2CN2C[C@@]3(CCCc4cc(Cl)ccc43)COc3ccc(cc32)C(=O)NS1(=O)=O [Example 100046, (1S,3′R,6′R,7′R,8′E,11′S,12′R)-6-chloro-7′-hydroxy-11′,12′-dimethyl-7′-(trifluoromethyl)-3,4-dihydro-2H,15′H-spiro[naphthalene-1,22′-[20]oxa[13]thia[1,14]diazatetracyclo [14.7.2.0~3,6~.0~19,24~]pentacosa[8,16,18,24]tetraen]-15′-one 13′,13′-dioxide] | 8.42 | 6.01 | – | – |
| CC[C@@H]1CC/C=C/[C@](O)(C(F)(F)F)[C@@H]2CC[C@H]2CN2C[C@@]3(CCCc4cc(Cl)ccc43)COc3ccc(cc32)C(=O)NS1(=O)=O [Example 100047, (1S,3′R,6′R,7′R,8′E,12′R)-6-chloro-12′-ethyl-7′-hydroxy-7′-(trifluoromethyl)-3,4-dihydro-2H,15′H-spiro[naphthalene-1,22′-[20]oxa[13]thia[1,14]diazatetracyclo [14.7.2.0~3,6~.0~19,24~]pentacosa[8,16,18,24]tetraen]-15′-one 13′,13′-dioxide] | 8.29 | – | 5.60 | – |
| C[C@@H]1[C@@H](C)CCC[C@](C)(O)[C@@H]2CC[C@H]2CN2C[C@@]3(CCCc4cc(Cl)ccc43)COc3ccc(cc32)C(=O)NS1(=O)=O [Example 100049, (1S,3′R,6′R,7′S,11′S,12′R)-6-chloro-7′-hydroxy-7′,11′,12′-trimethyl-3,4-dihydro-2H,15′H-spiro[naphthalene-1,22′-[20]oxa[13]thia[1,14]diazatetracyclo [14.7.2.0~3,6~.0~19,24~]pentacosa[16,18,24]trien]-15′-one 13′,13′-dioxide] | 8.90 | 5.67 | – | – |
| C[C@@H]1[C@@H](C)C/C=C/[C@@](O)(CC#N)[C@@H]2CC[C@H]2CN2C[C@@]3(CCCc4cc(Cl)ccc43)COc3ccc(cc32)C(=O)NS1(=O)=O [Example 100050, ((1S,3′R,6′R,7′S,8′E,11′S,12′R)-6-chloro-7′-hydroxy-11′,12′-dimethyl-13′,13′-dioxido-15′-oxo-3,4-dihydro-2H-spiro[naphthalene-1,22′-[20]oxa[13]thia[1,14]diazatetracyclo [14.7.2.0~3,6~.0~19,24~]pentacosa[8,16,18,24]tetraen]-7′-yl)acetonitrile] | – | – | 5.42 | 8.89 |
| C[C@@H]1[C@@H](C)C/C=C/[C@@](O)(CC#N)[C@@H]2CC[C@H]2CN2C[C@@]3(CCCc4cc(Cl)ccc43)COc3ccc(cc32)C(=O)NS1(=O)=O [Example 100051, ((1S,3′R,6′R,7′S,8′E,11′S,12′R)-6-chloro-7′-hydroxy-11′,12′-dimethyl-13′,13′-dioxido-15′-oxo-3,4-dihydro-2H-spiro[naphthalene-1,22′-[20]oxa[13]thia[1,14]diazatetracyclo [14.7.2.0~3,6~.0~19,24~]pentacosa[8,16,18,24]tetraen]-7′-yl)acetonitrile] | – | – | 6.30 | 9.66 |
| C[C@@H]1[C@@H](C)CCC[C@@](O)(CO)[C@@H]2CC[C@H]2CN2C[C@@]3(CCCc4cc(Cl)ccc43)COc3ccc(cc32)C(=O)NS1(=O)=O [Example 100053, (1S,3′R,6′R,7′S,11′S,12′R)-6-chloro-7′-hydroxy-7′-(hydroxymethyl)-11′,12′-dimethyl-3,4-dihydro-2H,15′H-spiro[naphthalene-1,22′-[20]oxa[13]thia[1,14]diazatetracyclo [14.7.2.0~3,6~.0~19,24~]pentacosa[16,18,24]trien]-15′-one 13′,13′-dioxide] | 9.53 | 6.22 | – | – |
| C[C@@H]1[C@@H](C)CCC[C@@]2(COC(=O)O2)[C@@H]2CC[C@H]2CN2C[C@@]3(CCCc4cc(Cl)ccc43)COc3ccc(cc32)C(=O)NS1(=O)=O [Example 100054, (3′R,4S,6′R,11′S,12′R,22′S)-6″-chloro-11′,12′-dimethyl-3″,4″-dihydro-2″H,15′H-dispiro[1,3-dioxolane-4,7′-[20]oxa[13]thia[1,14]diazatetracyclo [14.7.2.0~3,6~.0~19,24~]pentacosa[16,18,24]triene-22′,1″-naphthalene]-2,15′-dione 13′,13′-dioxide] | 8.39 | 5.04 | – | – |
| C[C@@H]1[C@@H](C)C[C@@H]2C=CC[C@](O)(C2)[C@@H]2CC[C@H]2CN2C[C@@]3(CCCc4cc(Cl)ccc43)COc3ccc(cc32)C(=O)NS1(=O)=O [Example 100056, (1S,3′R,6′R,7′S,11′S,13′S,14′R)-6-chloro-7′-hydroxy-13′,14′-dimethyl-3,4-dihydro-2H,17′H-spiro[naphthalene-1,24′-[22]oxa[15]thia[1,16]diazapentacyclo [16.7.2.1~7,11~.0~3,6~.0~21,26~]octacosa [9,18,20,26]tetraen]-17′-one 15′,15′-dioxide] | 9.37 | 5.77 | – | – |
| C[C@@H]1[C@@H](C)C[C@H]2C=CC[C@](O)(C2)[C@@H]2CC[C@H]2CN2C[C@@]3(CCCc4cc(Cl)ccc43)COc3ccc(cc32)C(=O)NS1(=O)=O [Example 100057, (1S,3′R,6′R,7′S,11′R,13′S,14′R)-6-chloro-7′-hydroxy-13′,14′-dimethyl-3,4-dihydro-2H,17′H-spiro[naphthalene-1,24′-[22]oxa[15]thia[1,16]diazapentacyclo [16.7.2.1~7,11~.0~3,6~.0~21,26~]octacosa [9,18,20,26]tetraen]-17′-one 15′,15′-dioxide] | 9.25 | 5.59 | – | – |
| C[C@@H]1[C@@H](C)C/C=C/[C@](O)(C(C)(C)C#N)[C@@H]2CC[C@H]2CN2C[C@@]3(CCCc4cc(Cl)ccc43)COc3ccc(cc32)C(=O)NS1(=O)=O [Example 100059, 2-((1S,3′R,6′R,7′R,8′E,11′S,12′R)-6-chloro-7′-hydroxy-11′,12′-dimethyl-13′,13′-dioxido-15′-oxo-3,4-dihydro-2H-spiro[naphthalene-1,22′-[20]oxa[13]thia[1,14]diazatetracyclo [14.7.2.0~3,6~.0~19,24~]pentacosa[8,16,18,24]tetraen]-7′-yl)-2-methylpropanenitrile] | 7.92 | 5.46 | – | – |
| C[C@@H]1[C@@H](C)C/C=C/[C@](O)(C(C)(C)C#N)[C@@H]2CC[C@H]2CN2C[C@@]3(CCCc4cc(Cl)ccc43)COc3ccc(cc32)C(=O)NS1(=O)=O [Example 100060, 2-((1S,3′R,6′R,7′R,8′E,11′S,12′R)-6-chloro-7′-hydroxy-11′,12′-dimethyl-13′,13′-dioxido-15′-oxo-3,4-dihydro-2H-spiro[naphthalene-1,22′-[20]oxa[13]thia[1,14]diazatetracyclo [14.7.2.0~3,6~.0~19,24~]pentacosa[8,16,18,24]tetraen]-7′-yl)-2-methylpropanenitrile] | 8.40 | – | 5.22 | – |
| COC(=O)[C@]1(O)/C=C/C[C@H](C)[C@@H](C)S(=O)(=O)NC(=O)c2ccc3c(c2)N(C[C@@H]2CC[C@H]21)C[C@@]1(CCCc2cc(Cl)ccc21)CO3 [Example 100061, methyl (1S,3′R,6′R,7′S,8′E,11′S,12′R)-6-chloro-7′-hydroxy-11′,12′-dimethyl-15′-oxo-3,4-dihydro-2H-spiro[naphthalene-1,22′-[20]oxa[13]thia[1,14]diazatetracyclo [14.7.2.0~3,6~.0~19,24~]pentacosa[8,16,18,24]tetraene]-7′-carboxylate 13′,13′-dioxide] | 9.11 | 6.28 | – | – |

— patent US10821115B2, “Compounds that inhibit Mcl-1 protein” (priority 2017, dated 2020)
